This note sets out measurements from the Kinase Knowledgebase extract (Sharma et al. 2016).

Chain of PIK3CG (human) (P48736 whole entry, looked up): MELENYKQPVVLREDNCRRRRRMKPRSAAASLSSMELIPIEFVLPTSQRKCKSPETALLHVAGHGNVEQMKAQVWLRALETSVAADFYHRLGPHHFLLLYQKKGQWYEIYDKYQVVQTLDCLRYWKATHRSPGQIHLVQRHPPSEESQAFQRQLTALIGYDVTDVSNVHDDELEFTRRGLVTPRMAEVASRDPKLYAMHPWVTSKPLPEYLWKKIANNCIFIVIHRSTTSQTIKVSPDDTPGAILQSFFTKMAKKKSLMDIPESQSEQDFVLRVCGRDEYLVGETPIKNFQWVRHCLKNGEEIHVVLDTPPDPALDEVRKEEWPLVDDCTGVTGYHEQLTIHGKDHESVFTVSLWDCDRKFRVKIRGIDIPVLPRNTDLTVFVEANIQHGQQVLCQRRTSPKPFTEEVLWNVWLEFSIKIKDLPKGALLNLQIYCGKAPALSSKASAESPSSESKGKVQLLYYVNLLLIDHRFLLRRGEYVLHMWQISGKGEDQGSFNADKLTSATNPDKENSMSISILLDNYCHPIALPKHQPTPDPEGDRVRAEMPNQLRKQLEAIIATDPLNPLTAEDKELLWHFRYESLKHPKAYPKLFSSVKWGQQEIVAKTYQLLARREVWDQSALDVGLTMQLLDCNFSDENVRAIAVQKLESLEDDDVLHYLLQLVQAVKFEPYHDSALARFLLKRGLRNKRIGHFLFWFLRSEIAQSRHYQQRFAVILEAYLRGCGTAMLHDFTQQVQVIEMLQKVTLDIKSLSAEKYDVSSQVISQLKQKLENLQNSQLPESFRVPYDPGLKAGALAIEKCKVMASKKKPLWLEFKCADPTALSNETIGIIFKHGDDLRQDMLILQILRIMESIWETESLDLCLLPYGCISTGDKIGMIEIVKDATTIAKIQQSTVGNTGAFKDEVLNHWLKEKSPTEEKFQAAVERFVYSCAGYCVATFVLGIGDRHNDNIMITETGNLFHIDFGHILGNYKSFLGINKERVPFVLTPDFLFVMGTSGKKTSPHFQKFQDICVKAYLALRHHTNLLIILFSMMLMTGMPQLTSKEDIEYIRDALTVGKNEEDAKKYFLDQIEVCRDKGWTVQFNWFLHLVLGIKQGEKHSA

This assay addresses PIK3CG (human) (UniProt P48736). The assay can be described thus: Inhibition of PIK3CG Kinase Activity.
Turning to `Nc1nc2ccc(-c3cncc(S(=O)(=O)Nc4ccc(OC(F)(F)F)cc4)c3)cn2n1`, the IC50 was less than 10 µM.
The same measure for `Nc1nc2ccc(-c3cncc(NS(=O)(=O)Cc4ccc(C(F)(F)F)cc4)c3)cn2n1`: less than 10 µM.
For `Nc1nc2ccc(-c3cncc(NS(=O)(=O)c4ccc5ccccc5c4)c3)cn2n1`, the IC50 is less than 10 µM.
In the case of `CNS(=O)(=O)c1cncc(-c2ccc3nc(N)nn3c2)c1`, the IC50 is less than 10 µM.
The same measure for `CCCCNS(=O)(=O)c1cccc(-c2ccc3nc(N)nn3c2)c1`: less than 10 µM; for `CN(C)CCN(C)S(=O)(=O)c1cccc(-c2ccc3nc(N)nn3c2)c1`: less than 10 µM; for `Nc1nc2ccc(-c3ccc(F)c(F)c3)cn2n1`: less than 10 µM.
`Nc1nc2ccc(-c3cncc(S(=O)(=O)NCCCC(F)(F)F)c3)cn2n1`: the IC50 was less than 10 µM.
On to `CN(C)CCN(C)S(=O)(=O)c1cncc(-c2ccc3nc(N)nn3c2)c1`, for which the IC50 is less than 10 µM.
The same measure for `CCCNS(=O)(=O)c1cncc(-c2cc(F)c3nc(N)nn3c2)c1`: less than 10 µM; for `CC1(NS(=O)(=O)c2cncc(-c3ccc4nc(N)nn4c3)c2)CCC1`: less than 10 µM; for `Nc1nc2ccc(-c3cncc(S(=O)(=O)Nc4ccc(C(F)(F)F)cc4)c3)cn2n1`: less than 10 µM.
The molecule `COc1ccccc1-c1ccc2nc(N)nn2c1` displayed an IC50 of less than 10 µM.
Next, `CC(C)c1ccccc1NS(=O)(=O)c1cncc(-c2ccc3nc(N)nn3c2)c1`: less than 10 µM; `CS(=O)(=O)c1cccc(-c2ccc3nc(N)nn3c2)c1`: less than 10 µM.
The same measure for `CC(C)(C)NS(=O)(=O)c1cccc(-c2ccc3nc(N)nn3c2)c1`: less than 10 µM; for `Nc1nc2ccc(-c3cc[nH]n3)cn2n1`: less than 10 µM; for `CC(C)(NS(=O)(=O)c1cncc(-c2ccc3nc(N)nn3c2)c1)c1ccccc1`: less than 10 µM.
Next, `COc1ccc(-c2ccc3nc(N)nn3c2)cc1OC(C)C`: less than 10 µM; `Nc1nc2ccc(-c3cncc(S(=O)(=O)Nc4ccc(F)cc4F)c3)cn2n1`: less than 10 µM; `Nc1nc2ccc(-c3cncc(S(=O)(=O)N4CCCC4)c3)cn2n1`: less than 10 µM.
As to `NCCNS(=O)(=O)c1cncc(-c2ccc3nc(N)nn3c2)c1`, the IC50 was less than 10 µM.
With `CCN(CC)S(=O)(=O)c1cncc(-c2ccc3nc(N)nn3c2)c1`, the IC50 was less than 10 µM.
The same measure for `CC(C)(C)COc1cncc(-c2ccc3nc(N)nn3c2)c1`: less than 10 µM; for `CNS(=O)(=O)c1cncc(-c2cc(F)c3nc(N)nn3c2)c1`: less than 10 µM; for `COc1ccc(-c2cc(C)c3nc(N)nn3c2)cc1OC`: less than 10 µM.
Take `Nc1nc2ccc(-c3cncc(S(=O)(=O)NCC(F)(F)F)c3)cn2n1`: the IC50 was less than 10 µM.
Regarding `Cc1nc(C)c(CNS(=O)(=O)c2cncc(-c3ccc4nc(N)nn4c3)c2)o1`, the IC50 was less than 10 µM.
The same measure for `COc1ccccc1NS(=O)(=O)c1cncc(-c2ccc3nc(N)nn3c2)c1`: less than 10 µM; for `Nc1nc2ccc(-c3cncc(S(=O)(=O)N(Cc4ccccc4F)C4CC4)c3)cn2n1`: less than 10 µM.
Next, `Nc1nc2ccc(-c3cncc(NS(=O)(=O)c4cc(C(F)(F)F)cc(C(F)(F)F)c4)c3)cn2n1`: less than 10 µM; `Nc1nc2ccc(-c3cncc(S(=O)(=O)Nc4ccc(OC(F)F)cc4)c3)cn2n1`: less than 10 µM.
The same measure for `Nc1nc2ccc(-c3cccc(F)c3)cn2n1`: less than 10 µM; for `NCCNS(=O)(=O)c1cccc(-c2ccc3nc(N)nn3c2)c1`: less than 10 µM.
Molecule `Cc1cccc(-c2ccc3nc(N)nn3c2)c1` gave an IC50 of less than 10 µM.
Next, `Cn1cc(-c2ccc3nc(N)nn3c2)cn1`: less than 10 µM; `Nc1nc2ccc(-c3cccc(S(N)(=O)=O)c3)cn2n1`: less than 10 µM; `Nc1nc2ccc(-c3cncc(S(=O)(=O)NCc4ccc(F)cc4)c3)cn2n1`: less than 10 µM.
Molecule `Nc1nc2c(F)cc(-c3cncc(C(F)(F)F)c3)cn2n1` returned an IC50 of less than 10 µM.
Next, `CCCNS(=O)(=O)c1cncc(-c2ccc3nc(N)nn3c2)c1`: less than 10 µM; `Nc1nc2ccc(-c3ccc(F)cc3)cn2n1`: less than 10 µM; `CC(C)NS(=O)(=O)c1cncc(-c2ccc3nc(N)nn3c2)c1`: less than 10 µM.
Next, `COc1cccc(NS(=O)(=O)c2cncc(-c3ccc4nc(N)nn4c3)c2)c1`: less than 10 µM; `Nc1nc2ccc(-c3cncc(S(=O)(=O)N4CCCCC4)c3)cn2n1`: less than 10 µM; `CN(C)CCNS(=O)(=O)c1cccc(-c2ccc3nc(N)nn3c2)c1`: less than 10 µM.
Next, `Nc1nc2ccc(-c3cncc(S(=O)(=O)Nc4cccc(C(F)(F)F)c4)c3)cn2n1`: less than 10 µM.
In the case of `Nc1nc2ccc(-c3ccccc3)cn2n1`, the IC50 is less than 10 µM.
Molecule `CN(C(C)(C)C)S(=O)(=O)c1cncc(-c2ccc3nc(N)nn3c2)c1` gave an IC50 of less than 10 µM.
The same measure for `CN(C)S(=O)(=O)c1cncc(-c2ccc3nc(N)nn3c2)c1`: less than 10 µM; for `CN(C)CCCNS(=O)(=O)c1cccc(-c2ccc3nc(N)nn3c2)c1`: less than 10 µM.
Next, `Nc1nc2ccc(-c3cncc(Oc4ccccc4)c3)cn2n1`: less than 10 µM; `Nc1nc2ccc(-c3ccncc3)cn2n1`: less than 10 µM; `Nc1nc2ccc(-c3cnc(N)c(C(F)(F)F)c3)cn2n1`: less than 10 µM.
For `COc1cc(-c2ccc3nc(N)nn3c2)ccc1OC(C)C`, the IC50 is less than 10 µM.
The molecule `CC(C)(CN1CCCC1)NS(=O)(=O)c1cncc(-c2ccc3nc(N)nn3c2)c1` returned an IC50 of less than 10 µM.
The same measure for `CN(C)CCCNS(=O)(=O)c1cncc(-c2ccc3nc(N)nn3c2)c1`: less than 10 µM; for `Nc1nc2ccc(-c3cccs3)cn2n1`: less than 10 µM; for `Nc1nc2ccc(-c3cncc(C(F)(F)F)c3)cn2n1`: less than 10 µM.
The molecule `Nc1nc2ccc(-c3cncc(S(=O)(=O)NC4CCC(O)CC4)c3)cn2n1` (configuration not stated) had an IC50 of less than 10 µM.
As for `Nc1nc2ccc(-c3cncc(S(=O)(=O)Nc4ccc(F)c(F)c4)c3)cn2n1`, the IC50 was less than 10 µM.
With `Nc1nc2ccc(-c3cncc(S(=O)(=O)NCc4ccc(Cl)c(Cl)c4)c3)cn2n1`, the IC50 is less than 10 µM.
Regarding `Nc1nc2ccc(-c3cncc(S(=O)(=O)Nc4cccc(F)c4F)c3)cn2n1`, the IC50 is less than 10 µM.
The same measure for `Nc1nc2ccc(-c3cncc(S(=O)(=O)Nc4cccc(OC(F)(F)F)c4)c3)cn2n1`: less than 10 µM; for `CN(Cc1ccccc1)S(=O)(=O)c1cncc(-c2ccc3nc(N)nn3c2)c1`: less than 10 µM.
Take `Nc1nc2ccc(-c3cccc(Cl)c3)cn2n1`: the half-maximal inhibitory concentration (IC50) was less than 10 µM.
Next, `COc1cc(-c2ccc3nc(N)nn3c2)cc(OC)c1OC`: less than 10 µM.
With `Nc1nc2ccc(-c3cccc(S(=O)(=O)NCCO)c3)cn2n1`, the IC50 is less than 10 µM.
Next, `Nc1nc2ccc(-c3cncc(S(=O)(=O)NC4CCCC4)c3)cn2n1`: less than 10 µM; `Nc1nc2ccc(-c3cccc(S(=O)(=O)NCCCC(=O)O)c3)cn2n1`: less than 10 µM; `CN1CCN(S(=O)(=O)c2cncc(-c3ccc4nc(N)nn4c3)c2)CC1`: less than 10 µM.
The same measure for `CC(C)c1ccc(S(=O)(=O)Nc2cncc(-c3ccc4nc(N)nn4c3)c2)cc1`: less than 10 µM; for `Nc1nc2ccc(-c3cncc(S(=O)(=O)N4CCOCC4)c3)cn2n1`: less than 10 µM.
